One assay relates to Pho1 acid phosphatase. Briefly: Acid phosphatase activity assay of plasmid-bearing pho4Δ pho1Δ cells. The settings on record: for Pho1 activity, % of the level attained with 15 μM thiamine: pTIN-pho1 cells. As for the experimental part:
Acid phosphatase activity assay. Aliquots of exponentially growing cultures were harvested, washed with water, and re-suspended in water. To quantify acid phosphatase activity, reaction mixtures (200 μl) containing 100 mM sodium acetate (pH 4.2), 10 mM p-nitrophenyl phosphate (NEB), and cells (ranging from 0.01 to 0.1 A600 units) were incubated for 5 min at 30° C. The reactions were quenched by addition of 1 ml of 1 M sodium carbonate; the cells were removed by centrifugation and the absorbance of the supernatant was measured at 410 nm. Acid phosphatase activity is expressed as the ratio of A410 (p-nitrophenol production) to A600 (cells). The data are averages (±SEM) of at least three assays using cells from three independent cultures.
To assay the activity of this promoter system, pho1 was used as the reporter gene driven by the tgp1 promoter (FIG. 1A). Cell surface-associated Pho1 activity is readily assayable colorimetrically via the conversion ofp-nitrophenylphosphate to p-nitrophenol. The pho1 gene was cloned downstream of the tgp1 5′ UTR in the pTIN vector with its native 3′ flanking DNA to yield the pTIN-pho1 plasmid (FIG. 1A). To test background acid phosphatase levels, a promoter-less pTIN pho1 vector was constructed that lacked the DNA segment spanning the regulatory nmt1-promoternc·tgp1·tgp1 promoter region as well as the tgp1 5′ UTR and only contained the pho1 ORF. These plasmids were introduced into a strain in which the chromosomal pho1 and pho4 genes encoding the cell-surface acid phosphatases Pho1 and Pho4 were deleted. Plasmid-bearing pho1Δ pho4Δ cells were grown to mid-log phase in Leu^− PMG medium without thiamine and subsequently diluted and grown in Leu^− PMG medium with or without 15 μM thiamine. Pho1 acid phosphatase activity was measured by incubating dilutions of cells with p-nitrophenylphosphate and measuring its conversion to p-nitrophenol for 5 min at 30° C. The amount of product formed (within the linear range of detection) was normalized to cell density and is plotted on the y-axis in FIG. 1B.

In another assay the test system is pho1 mRNA. Description: microbe, parasite or virus in culture. Conditions: for fold induction at 15 µM: Schizosaccharomyces pombe. Here is the method:
Total RNA prepared from harvested samples was analyzed by reverse transcription primer extension using a mixture of radiolabeled primers complementary to the pho1 (top panel) or the act1 (bottom panel) mRNAs. The reaction products were resolved by denaturing urea-PAGE and visualized by autoradiography. The images shown in the top and bottom panels are from a single exposure of one gel. For conciseness of the figure, the intervening lanes of the gel were cropped (represented by the thin line separating the 3 and 10-hour samples). The positions and sizes (in nucleotides) of DNA markers are indicated on the left. Fold-induction reflects the ratio of the act1-normalizedpho1 signal at the indicated time to time-0.
RNA analysis. Total RNA was extracted via the hot phenol method (Köhrer K. and Domdey H., Method Enzymol: 398-405 (1991), which is hereby incorporated by reference) from 3 A600 units of harvested yeast cells. For analysis of specific transcripts by primer extension, aliquots (5 μg) of total RNA were templated for M-MuLV reverse transcriptase-catalyzed extensions of 5′ 32P-labeled oligodeoxynucleotide primers complementary to the phot and actl mRNAs in one reaction mix. The primer sequence for act1 was, 5′-[…] (SEQ ID NO: 12), and for pho1, 5′-[…] (SEQ ID NO: 13). The primer extension reactions were performed as described by Schwer B., et al., Nucleic Acids Res 26: 2050-2057 (1998), which is hereby incorporated by reference, and the products were analyzed by electrophoresis of the reaction mixtures through a 22-cm 8% polyacrylamide gel containing 7 M urea in 80 mM Tris-borate, 1.2 mM EDTA. The ^32P-labeled primer extension products were visualized by autoradiography of the dried gel. Quantification of pho1 and act1 mRNA levels was done by scanning the dried gel with a phosphorimager and analyzing the data in ImageQuant software.
Pho1 acid phosphatase activity in pho1Δ pho4Δ A cells bearing the pTIN pho1 plasmid was determined as a function of time after addition of thiamine (FIG. 2A). […] To gauge the level of phol mRNA, primer extension analysis using a pho1-specific radiolabeled primer for reverse-transcription was used, in parallel with an actin gene-specific primer as a control.

As a reminder, the EC50 is the concentration needed to bring the measured effect to its halfway point.

SMILES strings stand for the structures. Where two headings read alike, the source gives them in different places.

`Cc1ncc(C[n+]2csc(CCO)c2C)c(N)n1` [thiamine]: the EC50 in the assay with Pho1 acid phosphatase (Schizosaccharomyces pombe, read-out: dose of half maximal response (EC50) of Pho1 activity) was 69 ± 5 nM. Further, the fold induction at 15 µM was 59 with Pho1 acid phosphatase (Schizosaccharomyces pombe, read-out: fold induction of Pho1 activity); 25 in the assay with pho1 mRNA (0.5 h, read-out: pho1 mRNA fold induction (act1-normalized, vs time-0)); 61 in the assay on pho1 mRNA (1 h, read-out: pho1 mRNA maximum fold induction). Also, the “rate of Pho1 activity increase between 7 and 11 hours, % of the initial rate (1 to 7 hours)” value with Pho1 acid phosphatase (pTIN pho1 cells after addition of 15 μM thiamine) was determined as 58%. In the assay on Pho1 acid phosphatase (pTIN pho1 cells, 15 μM thiamine vs thiamine-free medium, 21 hours), the “fold increase in acid phosphatase activity” value is reported as 58 fold. Moreover, in the assay on Pho1 acid phosphatase (pTIN pho1 cells, 23 hours after addition of 15 μM thiamine), the “fold increase in Pho1 level over the uninduced state” value was 53 fold. The “Pho1 activity, % of the level attained with 15 μM thiamine” value amounted to 8% with Pho1 acid phosphatase (0.01 μM thiamine); 16% in the assay with Pho1 acid phosphatase (0.025 μM thiamine); 33% in the assay with Pho1 acid phosphatase (0.05 μM thiamine); 54% with Pho1 acid phosphatase (0.075 μM thiamine); 73% with Pho1 acid phosphatase (0.1 μM thiamine); 93% with Pho1 acid phosphatase (0.3 μM thiamine). In the assay with Pho1 acid phosphatase (3 μM thiamine), the “Pho1 activity, % of the level attained with 15 μM thiamine” value is listed as 96%. In addition, the “fold increase in Pho1 activity on addition of thiamine” value in the assay with Pho1 acid phosphatase (pho1Δ pho4Δ cells bearing pTIN7m pho1, 22 hours) came out at 172 fold. Moreover, the “thiamine concentration at which induction was saturated” value in the assay on Pho1 acid phosphatase (pho1Δ pho4Δ cells bearing pTIN-pho1) was not below 0.3 µM. Also, in the assay on pho1 mRNA (pTIN system), the “transcriptional induction by the addition of thiamine (dynamic range of pTIN system)” value is on record as not above 60 fold. Further, the “time after induction at which target mRNA levels reach peak” value in the assay with pho1 mRNA (pTIN system, thiamine induction) was not above 1 h. Further, in the assay on pho1 mRNA (pTIN-pho1 cells, all times assayed after 1 hour), the “pho1 mRNA level, fold higher than the uninduced state” value was “approximately 60 fold”.

The record behind these values is US20230265425A1, “lncRNA-REGULATED GENE EXPRESSION SYSTEM” (MEMORIAL SLOAN KETTERING CANCER CENTER, priority 2020, published 2023).
